Data published in patent US20230053540A1, “TREATMENT OF LIVER INJURY” (Massachusetts Institute of Technology, priority 2019, published 2023).

Tested on: hepatocytes
Assay: Seq-Well scRNA-Seq of hepatocytes after APAP overdose (signature scores, DEG vs untreated)
Assay type: in vivo, mouse
Settings: A6 vs UT

CC(=O)Nc1ccc(O)cc1 [APAP, acetaminophen]
Slc25a10 avg_logFC: −0.2828 | Slc25a10 pct.1: 0.351 | Slc25a47 avg_logFC: 0.4289 | Slc25a51 A6logFC: 0.264 | Slc25a51 avg_logFC: 0.264 | Slc25a51 pct.1: 0.308 | Slc26a1 A6logFC: −0.2817 | Slc26a1 avg_logFC: −0.2817 | Slc26a1 pct.1: 0.329 | Slc30a1 A6logFC: 0.2506 | Slc30a1 avg_logFC: 0.2506 | Slc30a1 pct.1: 0.346 | Slc35d1 A6logFC: 0.3094 | Slc35d1 avg_logFC: 0.3094 | Slc35d1 pct.1: 0.489 | Slc38a3 avg_logFC: −0.4098 | Slc38a3 pct.1: 0.663 | Slc39a14 avg_logFC: 1.013 | Slc40a1 avg_logFC: 0.467 | Slc40a1 pct.1: 0.456 | Slirp A6logFC: −0.3085 | Smoc1 A6logFC: 0.2616 | Smoc1 avg_logFC: 0.2616 | Smoc1 pct.1: 0.368 | Snx10 A6logFC: 0.2856 | Snx10 avg_logFC: 0.2856 | Snx10 pct.1: 0.341 | Sod1 avg_logFC: −0.4393 | Son avg_logFC: 0.5429 | Son pct.1: 0.601 | Sord avg_logFC: −0.3836 | Sord pct.1: 0.754 | Spag9 A6logFC: 0.3188 | Spag9 avg_logFC: 0.3188 | Spag9 pct.1: 0.415 | Spcs1 A6logFC: −0.2629 | Spcs1 avg_logFC: −0.2629 | Spcs1 pct.1: 0.236 | Spp2 avg_logFC: −0.3821 | Spp2 pct.1: 0.334 | Spred1 avg_logFC: 0.3884 | Spred1 pct.1: 0.308 | Sptan1 A6logFC: 0.3127 | Sptan1 avg_logFC: 0.3127 | Sptan1 pct.1: 0.348 | Sptbn1 avg_logFC: 0.4227 | Sptbn1 pct.1: 0.439 | Sqstm1 avg_logFC: 0.7432 | Srd5a1 A6logFC: −0.2773 | Srd5a1 avg_logFC: −0.2773 | Srd5a1 pct.1: 0.308 | Srgn avg_logFC: 0.9341 | Srrm2 A6logFC: 0.3282 | Srrm2 avg_logFC: 0.3282 | Srrm2 pct.1: 0.456 | Srxn1 avg_logFC: 1.878 | Ssr4 avg_logFC: −0.5076 | Ssr4 pct.1: 0.413 | St3gal1 avg_logFC: 0.5287 | St3gal4 A6logFC: 0.275 | St3gal4 avg_logFC: 0.275 | St3gal4 pct.1: 0.368 | St3gal5 avg_logFC: 0.6076 | Stard10 avg_logFC: −0.3383 | Stard10 pct.1: 0.876 | Stat3 avg_logFC: 0.7154 | Stbd1 A6logFC: −0.2732 | Steap4 avg_logFC: 0.4372 | Steap4 pct.1: 0.37 | Stk40 avg_logFC: 0.5364 | Suco A6logFC: 0.251 | Suco avg_logFC: 0.251 | Suco pct.1: 0.26 | Sult1a1 avg_logFC: 0.319 | Sult1a1 pct.1: 0.685 | Supt6 A6logFC: 0.2913 | Supt6 avg_logFC: 0.2913 | Supt6 pct.1: 0.291 | Swi5 A6logFC: −0.2621 | Swi5 avg_logFC: −0.2621 | Swi5 pct.1: 0.341 | Syncrip A6logFC: 0.2748 | Syncrip avg_logFC: 0.2748 | Syncrip pct.1: 0.365 | Tab2 A6logFC: 0.3484 | Tab2 avg_logFC: 0.3484 | Tab2 pct.1: 0.425 | Tacc2 avg_logFC: 0.3293 | Tacc2 pct.1: 0.289 | Tars avg_logFC: 0.4921 | Tars pct.1: 0.666 | Tatdn2 avg_logFC: 0.3733 | Tatdn2 pct.1: 0.334 | Tbc1d15 avg_logFC: 0.4886 | Tbc1d15 pct.1: 0.461 | Tbca A6logFC: −0.2726 | Tbca avg_logFC: −0.2726 | Tbca pct.1: 0.284 | Tcerg1 avg_logFC: 0.3575 | Tcerg1 pct.1: 0.305 | Tfpi2 avg_logFC: −0.3663 | Tfpi2 pct.1: 0.155 | Timm13 avg_logFC: −0.433 | Timm13 pct.1: 0.418 | Tiparp avg_logFC: 0.5456 | Tjp2 avg_logFC: 0.4115 | Tjp2 pct.1: 0.332 | Tln1 A6logFC: 0.321 | Tln1 avg_logFC: 0.321 | Tln1 pct.1: 0.31 | Tm4sf4 avg_logFC: 0.5126 | Tm4sf4 pct.1: 0.484 | Tmed5 avg_logFC: 0.4016 | Tmed5 pct.1: 0.594 | Tmem14c avg_logFC: −0.3685 | Tmem14c pct.1: 0.332 | Tmem37 A6logFC: −0.2822 | Tmem86b A6logFC: −0.2582 | Tmem87b avg_logFC: 0.4344 | Tmem87b pct.1: 0.351 | Tmem147 A6logFC: 0.2838 | Tmem150a A6logFC: −0.2535 | Tmem160 A6logFC: −0.339 | Tmem205 avg_logFC: −0.7747 | Tmem242 A6logFC: −0.2725 | Tmem256 avg_logFC: −0.5185 | Tmem256 pct.1: 0.375 | Tmem258 A6logFC: −0.2769 | Tmprss6 A6logFC: −0.2802 | Tmprss6 avg_logFC: −0.2802 | Tmprss6 pct.1: 0.551 | Tmsb4x avg_logFC: 0.7806 | Tnfrsf1a avg_logFC: 0.5996 | Tnfrsf12a avg_logFC: 1.118 | Tnks2 A6logFC: 0.3176 | Tns1 avg_logFC: 0.4349 | Tns1 pct.1: 0.403 | Tpi1 A6logFC: −0.2616 | Tpi1 avg_logFC: −0.2616 | Tpi1 pct.1: 0.539 | Tpr A6logFC: 0.4409 | Tra2a avg_logFC: 0.7123 | Trf avg_logFC: −0.2619 | Trf pct.1: 0.988 | Trib1 avg_logFC: 0.3317 | Trib1 pct.1: 0.411 | Trip11 A6logFC: 0.3479 | Trip11 avg_logFC: 0.3479 | Trip11 pct.1: 0.341 | Trp53inp1 avg_logFC: 1.008 | Tsc22d1 A6logFC: −0.2997 | Tsc22d2 avg_logFC: 0.3911 | Tsc22d2 pct.1: 0.353 | Tsku avg_logFC: 0.3676 | Tsku pct.1: 0.327 | Tspan31 A6logFC: −0.2959 | Tspan31 avg_logFC: −0.2959 | Tspan31 pct.1: 0.415 | Tspo A6logFC: −0.3157 | Tsr1 avg_logFC: 0.3603 | Tsr1 pct.1: 0.341 | Ttc36 avg_logFC: −0.6606 | Ttr avg_logFC: −0.5306 | Tubb2a avg_logFC: 0.7494 | Tubb6 avg_logFC: 0.5767 | Tyrobp avg_logFC: 0.4666 | Ubb A6logFC: −0.275 | Ubc avg_logFC: −0.6618 | Ubr4 A6logFC: 0.3301 | Ubr4 avg_logFC: 0.3301 | Ubr4 pct.1: 0.411 | Ubr5 A6logFC: 0.3057 | Ubr5 avg_logFC: 0.3057 | Ubr5 pct.1: 0.399 | Ugdh avg_logFC: 0.6331 | Ugt2b5 avg_logFC: −0.6034 | Ugt2b36 avg_logFC: −0.5834 | Ugt3a2 A6logFC: −0.2586 | Ugt3a2 avg_logFC: −0.2586 | Ugt3a2 pct.1: 0.492 | Uhrf1bp1l avg_logFC: 0.4198 | Uhrf1bp1l pct.1: 0.399 | Uox avg_logFC: −0.5531 | Upp2 avg_logFC: −0.6903 | Uqcr10 avg_logFC: −0.4519 | Uqcr10 pct.1: 0.561 | Uqcr11 avg_logFC: −0.6031 | Uqcrb avg_logFC: −0.4084 | Uqcrb pct.1: 0.425 | Uqcrh avg_logFC: −0.4292 | Uqcrh pct.1: 0.589 | Urah avg_logFC: −0.7641 | Usp4 avg_logFC: 0.28 | Usp4 pct.1: 0.439 | Usp7 A6logFC: 0.2873 | Usp7 avg_logFC: 0.2873 | Usp7 pct.1: 0.363 | Usp9x avg_logFC: 0.3184 | Usp9x pct.1: 0.451 | Usp34 A6logFC: 0.2859 | Usp34 avg_logFC: 0.2859 | Usp34 pct.1: 0.37
